# From US12404294B2, “Glycolipopeptide biosurfactants” (Croda International Plc, priority 2016, dated 2025)
# What was measured:
# [1] = Critical micelle concentration and surface tension of water, Du Nouy method (Kibron Delta-8 microtensiometer); format: physicochemical; details: for CMC: degassed deionized water, 24-25° C.; for Minimum Surface Tension: surface tension of water at CMC (water 72 mN/m)
# Procedure: As summarized in Table 1, the critical micelle concentrations (CMCs) of NB-RLP1006, NB-RLP978, NB-RLP860, and NB-RLP-1048B were determined by the Du Nouy method utilizing a Kibron Delta-8 multichannel microtensiometer (Kibron Inc., Helsinki, Finland). All samples were prepared in degassed deionized water (Millipore, Etobicoke, ON, CA) at concentrations ranging from 0 to 2.0 mM. All measurements were recorded between 24 and 25° C. and performed in duplicate. The critical micelle concentration of both NB-RLP1006 and NB-RLP978 was 0.20 mM (0.02 wt %). […] The surface activity of NB-RLP1006 was compared to rhamnolipids A and B, which were purified from a commercially available rhamnolipid mixture (R90; AGAE Technologies, Corvallis, OR, USA) by reversed-phase HPLC.
# [2] = system: adult epidermal keratinocytes (HEKa); assay: Cytotoxicity testing, alamarBlue, HEKa cells; format: cell-based, human; details: 24 h treatment; for HEKa (MIC90): 90% of growth inhibition; for IC50: Homo sapiens, HEKa
# Procedure: (§1) To evaluate the safety profile of the glycolipopeptides, cytotoxicity testing was conducted against two normal human cell lines, BJ fibroblast cells ATCC CRL-2522 and adult epidermal keratinocytes (HEKa; Life Technologies, Carlsbad, CA, USA). […] Life Technologies, Carlsbad, CA, USA) and 50 μg/mL gentamicin (Sigma-Aldrich, St. Louis, MO, USA). Cells were cultured in […]^2 cell culture flasks and incubated at 37° C. in a humidified atmosphere of 5% CO2. For BJ fibroblasts culture media was refreshed every two to three days and cells were not allowed to exceed 80% confluence. […] At 80% confluence, the cells were counted, diluted to 10,000 cells/well in growth medium lacking antibiotics and 90 μL of cell suspension was transferred into the wells of 96-well treated cell culture plates. The plates were incubated as before to allow cells to adhere to the plates for 24 h before treatment. DMSO was used as the vehicle at a final concentration of 1%. […] The fibroblasts and HEKa cells were incubated as previously described for 24 h. All samples were tested in triplicate. […] AlamarBlue (Life Technologies, Carlsbad, CA, USA) was added to each well 24 h after treatment (10% v/v). Fluorescence (560/12 excitation, 590 nm emission) was monitored using a Varioskan Flash Multimode plate reader both at time zero and 4 h after the addition of alamarBlue. After subtraction of fluorescence at time zero from 4 h readings the percentage of cell viability relative to vehicle control wells was calculated.
# [3] = system: BJ fibroblast cells ATCC CRL-2522; assay: Cytotoxicity testing, alamarBlue, BJ fibroblasts; format: cell-based, human; details: 24 h treatment; for BJ (MIC90): 90% of growth inhibition; for IC50: Homo sapiens, Fibroblast
# Procedure: as §1
# [4] = Aqueous solubility (remark); format: physicochemical; details: in words
# [5] = Emulsification activity assay (emulsification index E24, kerosene); format: physicochemical
# Procedure: V. paradoxus RKNM-096 was identified as a biosurfactant producer in a screen aimed at identifying bacterial producers of biosurfactants with emulsifying properties. The assay utilized to identify bacterial producers of biosurfactants was the emulsification activity assay. In this assay cultures were grown in 10 mL of liquid medium in 25 mm×150 mm glass tubes at 30° C. with shaking at 200 rpm for 5 days. After 5 days, the cells were removed by centrifugation and 3.5 mL of cell free culture broth was mixed with 3.5 mL of kerosene in a 13 mm×100 mm test tube with a screw cap tube. The tubes were vortexed for two minutes and then allowed to stand overnight at room temperature after which the height of the emulsion (hemuls) and the total height (htotal) of the liquid in the tube were measured. The emulsification index (E24) was calculated using the equation E24=hemuls/htotal×100%.
# (§2) The emulsifying properties of NB-RLP1006 were determined using the emulsification index as described above. […] The emulsification of NB-RLP1006 is pH-dependent with E24 values of 8, 38, and 31% at pH 3, 6, and 8, respectively. The type of emulsion formed by NB-RLP1006 (e.g. oil-in-water or water-in-oil) was determined using the drop dilution test. An emulsion was formed by vigorously mixing a 1 mg/mL solution of RLP1006 in deionized water with an equal volume of kerosene for 1 min. A portion (20 μL) of the emulsion was transferred to 0.5 mL of deionized water and 0.5 mL of kerosene and dilution of the emulsion in each liquid was monitored.
# [6] = Drop dilution test for type of emulsion; format: physicochemical; details: 1 mg/mL in deionized water with equal volume of kerosene
# Procedure: as §2
# [7] = Characteristic curvature (Cc) by HLD-NAC model, electrolyte scan with SDHS/toluene; format: physicochemical; details: NB-RLP1006/SDHS mixtures, toluene oil phase, NaCl 0 to 6.0% (w/v)
# Procedure: The characteristic curvature (Cc) of NB-RLP1006 was determined using the hydrophilic-lipophilic difference-net average curvature (HLD-NAC) model to calculate the shift in chemical potential when NB-RLP1006 is transferred from the oil to the aqueous phase as a function of salinity by the following general equation: HLD=F(S)−k×EACN+F(A)−∝×ΔT+Cc where F(S) is a function of salinity, k is a coefficient equal to 0.17, EACN (effective alkane carbon number) is the number of carbons in the alkane oil phase, α is a coefficient dependent on the type of surfactant (ionic, ethoxylates, etc), and ΔT is the effect of temperature. Four mixtures of NB-RLP1006 and sodium dihexyl sulfosuccinate (SDHS) were prepared with a total surfactant concentration of 1.8 mg/mL using the following NB-RLP1006/SDHS ratios: 0, 12, 24, and 40 wt % NB-RLP1006. An electrolyte scan was performed for each mixture by varying the NaCl concentration from 0 to 6.0% (w/v). Each mixture was added to an equal volume of toluene, which constituted the oil phase, and shaken vigorously. […] A plot of the NB-RLP1006/SDHS molar ratios versus S* was generated and Cc was calculated from the line of best fit. The Cc value for NB-RLP1006 was determined to be +5.2, a value that reflects the hydrophobic nature of this biosurfactant.
Compound,CMC [1],CMC ([1]; duplicate),Minimum Surface Tension [1],HEKa (MIC90) [2],IC50 ([2]; error is standard deviation),BJ (MIC90) [3],IC50 ([3]; error is standard deviation),aqueous solubility [4],emulsification index (E24) ([5]; 1 mg/mL in deionized water),emulsification index (E24) ([5]; pH 3),emulsification index (E24) ([5]; pH 6),emulsification index (E24) ([5]; pH 8),type of emulsion formed [6],characteristic curvature (Cc) [7],HEKa (IC50) ([2]; error is standard deviation),BJ (IC50) ([3]; error is standard deviation)
CCCCCCCC(CC(=O)NC(CO)C(=O)NC(CO)CC(C)C)OC(=O)CC(CCCCCCC)OC(=O)CC(CCCCCCC)OC1OC(C)C(O)C(O)C1O (stereo not drawn) [NB-RLP860],0.07 wt %,0.85 mM,36.2 mN/m,128 µg/mL,15.5 ± 1.6 µg/mL,32 µg/mL,16.3 ± 0.3 µg/mL,poor aqueous solubility,,,,,,,,
CCCC(CC(=O)NC(CO)C(=O)NC(CO)CC(C)C)OC(=O)CC(CCC)OC(=O)CC(CCC)OC1OC(C)C(O)C(OC2OC(C)C(O)C(O)C2O)C1O (stereo not drawn) [NB-RLP978],0.02 wt %,0.20 mM,35.5 mN/m,,,,,,,,,,,,,
CCCCCCCC(CC(=O)NC(CO)C(=O)NC(CO)CC(C)C)OC(=O)CC(CCCCCCC)OC(=O)CC(CCCCCCC)OC1OC(C)C(O)C(OC2OC(C)C(O)C(O)C2O)C1O (stereo not drawn) [NB-RLP1006],0.02 wt %,0.20 mM,35.5 mN/m,64 to 128 µg/mL,15.5 ± 1.7 µg/mL,32 µg/mL,19.5 ± 2.4 µg/mL,,53%,8%,38%,31%,oil-in-water (o/w) and o/w,+5.2,,
CCCCCCCC(CC(=O)NC(CO)C(=O)NC(CO)CC(C)C)OC(=O)CC(CCCCCCC)OC(=O)CC(CCCCCCC)OC1OC(C)C(O)C(OC2OC(C)C(O)C(OC(C)=O)C2O)C1O (stereo not drawn) [NB-RLP1048B],0.09 wt %,0.85 mM,36.9 mN/m,64 to 128 µg/mL,19.3 ± 4 µg/mL,32 µg/mL,18.7 ± 1.6 µg/mL,poor aqueous solubility,,,,,,,,
Zinc pyrithione [reference compound],,,,1 µg/mL,,4 µg/mL,,,,,,,,,0.20 ± 0.001 µg/mL,2.2 ± 0.3 µg/mL
